Measurements reported in patent US20040106681A1, “Dosage escalation and divided daily dose of anti-depressants to treat neurological disorders” (priority 2002, published 2004).
Where a name gives a salt, the structure may show the parent alone.

Experiments:
[1] = swim stress test, hot plate response latency (thermal nociception threshold); format: in vivo, Sprague-Dawley rats
Protocol: (§1) The treatment groups of rats were the following: (1) stressed—forced swimming in 20 cm of water; (2) sham—swimming in 2-3 cm of water; (3) naive—left undisturbed in cage.
(§2) The rats were tested for thermal nociception threshold by hot plate response latency (in seconds). The rats were tested for muscle hyperalgesia by measuring grip strength (in kg) by algometer.
(§3) Data on hot plate response latency and grip strength was acquired on days 7 and 11.

[2] = Example 1 gradual dose escalation study in fibromyalgia; format: in vivo, human; details: out of approximately 70 treated; weekly escalation 25, 50, 100, 200 mg daily
Excerpt: This study was undertaken to characterize the efficacy of milnacipran in treatment of fibromyalgia syndrome (FMS). A secondary objective was to evaluate the relationship between daily dose administered, frequency of dosing, and efficacy in treatment of FMS. […] In this study, daily dosages were gradually escalated.
Subjects who met the 1990 ACR criteria for fibromyalgia syndrome were eligible for enrollment. Patients recorded baseline symptoms for the first two weeks after washing off anti-depressants, hypnotics and certain other drugs that potentially could interfere with efficacy measurements. […] If the patient tolerated this dosage, they were stepped up to a 50 mg daily dosage for week two, 100 mg for week three, and 200 mg for week four, or a matching placebo. If dose-limiting toxicities were encountered during any given week, the patient was stepped down to the previous week's dosage and maintained at that dosage for the remainder of the study. Subjects continued to take their maximum tolerated dose (up to 200 mg) for an additional 8 weeks. Patients may receive a total of 12 weeks of medication. Dose-limited toxicity is defined as the occurrence of a drug-related grade 3-4 adverse event.
Efficacy was measured using FMS status assessments prior to receiving the first dose and during monthly clinic visits. […]

[3] = swim stress test, grip strength (muscle hyperalgesia); format: in vivo, Sprague-Dawley rats
Protocol: as §1, §2, §3

[4] = Example 2 12-week randomized, double-blind placebo-controlled dose escalation monotherapy trial in FMS; format: in vivo, human; details: for Intolerance (dose escalation failures, number of patients): 36 total patients
Protocol: After an initial period when patients were washed off pain medication, centrally acting stimulants, antidepressants and sedative-hypnotics, a two-week baseline period was begun. […] All patients were escalated over a 4-week period in weekly steps from 25 mg daily, to 50, 100, and finally 200 mg daily, or until dose-limiting toxicity (DLT) was evident. The presence of DLT was evaluated by the study center each week prior to authorizing the patient to step up to the next higher dosage. In the event that DLT was evident, the patient was stabilized at the previously well-tolerated dosage, and remained on this dose for eight weeks at stable dose therapy. Patients who successfully reached the 200 mg daily dose were also then treated for an additional 8 weeks at that dose.
At any give dose level, milnacipran QD patients would receive the full dose of milnacipran in the morning and receive placebo at night. Milnacipran BID patients would receive the same total amount in a split dose given morning and evening. During the study, patents were asked to carry an electronic diary and record pain, fatigue, sleep, and functional information. The custom designed diary captured spontaneous pain data in several ways, including
(1) random daily prompts (the device notified the patient to record their current level of pain 4-5 times per day);
(2) a morning daily prompt querying about the previous 24-hours' pain;
(3) a Friday night weekly report asking about the patient's average pain for the past week.
The electronic assessments were supplemented with traditional pain, mood, and quality of life inventories during clinic visits. The diaries implemented an electronic version of the Gracely anchored logarithmic pain scale. This scale asks patients to choose between “extremely intense,” “very intense,” “intense,” “strong,” “slightly intense,” “barely strong,” “moderate,” “mild,” “very mild,” “weak,” “very weak,” “faint,” and “no pain” sensation to describe their pain.
During the 4th, 8th, and 12th week of treatment, patients visited the clinic, where a number of standard outcome measures including the SF-36, the McGill pain questionnaire, the Beck, the STPI, the fibromyalgia impact questionnaire, and several pain measures were administered. Safety information was also collected at these clinic visits.
The primary endpoint was defined as the change in pain score from baseline to endpoint based on pain scores collected on the patient electronic diary (PED). Endpoint was defined as week twelve for assessments with a single value (such as clinic measures) or the average of scores at weeks 11 and 12 for diary-based outcomes. “Responders” were defined as those patients an improvement in pain score of at least 30%.

[5] = pretreatment; repeatedly stressed rats; cited from earlier work
[6] = pretreatment, 10 or 30 mg/kg/day IP QD days 1-11, swim stress days 8-10
[7] = treatment after swim stress, drug days 5-10, swim stress days 2-4

CCN(CC)C(=O)[C@@]1(c2ccccc2)C[C@H]1CN (racemic) [milnacipran, (±)-cis-2-(aminomethyl)-N,N-diethyl-1-phenylcyclopropanecarboxamide hydrochloride]
swim stress-induced reductions in hot plate latency [1, 6]: not prevented | swim stress-induced reductions in hot plate response latency [1, 7]: did not reverse | patients who failed to tolerate 200 mg/day [2]: 9 | stress-induced reduction in grip strength [3, 6]: prevented | reduction in grip strength caused by repeated forced swim stress [3, 7]: did reverse | patient global pain score, mean value ([4]; 1-7 scale (1 very much improved, 4 unchanged, 7 very much worse), endpoint, 38 MIL patients, QD and BID pooled): 2.3 | % Dose Intolerance ([4]; BID dosing): 6% | Intolerance (dose escalation failures, number of patients) ([4]; BID dosing): 2 | difference in Beck scores at endpoint versus placebo ([4]; FMS patients meeting definition of MDE, pooled milnacipran groups, p=0.03): significant | daily sleep quality scores, improvement versus placebo ([4]; QD and BID, 12-week treatment): No significant improvement | % Dose Intolerance ([4]; QD dosing): 19% | Intolerance (dose escalation failures, number of patients) ([4]; QD dosing): 7 | worsening of sleep quality ([4]; in vivo): no worsening | patient electronic diary (PED) pain scores of responders ([4]; milnacipran BID, weeks 2-6, dose escalation): improvement | 24-hour daily pain reported scores, BID versus QD ([4]; throughout 12-week treatment): BID dosing was more effective than QD dosing

CNCCC(Oc1ccc(C(F)(F)F)cc1)c1ccccc1.Cl (racemic) [fluoxetine, (±)-N-methyl-3-phenyl-3-[(α,α,α-trifluoro-p-tolyl)oxy]propylamine hydrochloride]
development of cutaneous hyperalgesia [5]: prevent the development of cutaneous hyperalgesia

CN(C)CCCN1c2ccccc2CCc2ccc(Cl)cc21 [clormipramine]
development of cutaneous hyperalgesia [5]: prevent the development of cutaneous hyperalgesia
